In ChEMBL document CHEMBL1149541, “Potent macrocyclic antagonists to the motilin receptor presenting novel unnatural amino acids” (Bioorg Med Chem Lett, 2007):

Experiments:
Motilin receptor [1] = biological target: T1, Motilin receptor (Homo sapiens, UniProt O43193); test: Displacement of [125I]motilin from human motilin receptor expressed in CHO cells; type: cell-based
Motilin receptor [2] = biological target: T1, Motilin receptor; test: Antagonist activity against human motilin receptor in aequoscreen cells assessed as inhibition of motilin induced calcium release by aequorin assay; type: functional, cell-based

T1 sequence (O43193 whole entry): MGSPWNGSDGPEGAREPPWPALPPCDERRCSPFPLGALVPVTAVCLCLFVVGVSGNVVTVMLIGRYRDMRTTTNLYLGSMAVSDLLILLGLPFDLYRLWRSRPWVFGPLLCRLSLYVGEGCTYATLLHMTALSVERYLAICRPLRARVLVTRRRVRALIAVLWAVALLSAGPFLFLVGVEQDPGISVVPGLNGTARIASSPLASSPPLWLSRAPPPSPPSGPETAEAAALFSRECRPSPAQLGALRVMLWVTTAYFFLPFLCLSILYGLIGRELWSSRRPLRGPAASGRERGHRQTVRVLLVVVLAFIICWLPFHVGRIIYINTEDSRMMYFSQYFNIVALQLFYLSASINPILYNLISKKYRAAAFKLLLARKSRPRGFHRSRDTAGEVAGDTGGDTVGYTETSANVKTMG

Compound | Ki (Motilin receptor [1]) | IC50 (Motilin receptor [2])
CC(C)[C@H]1NC(=O)[C@@H](Cc2cccc(Cl)c2)NCCOc2ccccc2CCCNC(=O)[C@H](CCN=C(N)N)NC1=O | 33 nM | 
CC(C)[C@H]1NC(=O)[C@@H](Cc2ccc(Cl)cc2)NCCOc2ccccc2CCCNC(=O)[C@H](CN(C)C)NC1=O | 16 nM | 
CC(C)[C@H]1NC(=O)[C@@H](Cc2cccc(Cl)c2)NCCOc2ccccc2CCCNC(=O)[C@H](CNc2nccs2)NC1=O | 41 nM | 
CC(C)[C@H]1NC(=O)[C@@H](Cc2cccc(Cl)c2)NCCOc2ccccc2CCCNC(=O)[C@H](Cn2ccnc2)NC1=O | 62 nM | 
CC(C)[C@H]1NC(=O)[C@@H](Cc2cccc(C(F)(F)F)c2)NCCOc2ccccc2CCCNC(=O)[C@H](CN)NC1=O | 15 nM | 8 nM
CNC[C@@H]1NC(=O)[C@@H](C(C)C)NC(=O)[C@@H](Cc2cccc(C(F)(F)F)c2)NCCOc2ccccc2CCCNC1=O | 6 nM | 3 nM
CC(C)[C@H]1NC(=O)[C@@H](Cc2ccc(O)cc2)NCCOc2ccccc2/C=C/CNC(=O)[C@H](CCCN)NC1=O | 889 nM | 
Cc1cnnn1C[C@@H]1NC(=O)[C@@H](C(C)C)NC(=O)[C@@H](Cc2cccc(C(F)(F)F)c2)NCCOc2ccccc2CCCNC1=O | 17 nM | 
CC(=O)NC[C@@H]1NC(=O)[C@@H](C(C)C)NC(=O)[C@@H](Cc2ccc(O)cc2)NCCOc2ccccc2CCCNC1=O | 1950 nM | 
CC(C)NC[C@@H]1NC(=O)[C@@H](C(C)C)NC(=O)[C@@H](Cc2ccc(O)cc2)NCCOc2ccccc2CCCNC1=O | 376 nM | 
CC(C)[C@H]1NC(=O)[C@@H](Cc2cccc(Cl)c2)NCCOc2ccccc2CCCNC(=O)[C@H](CN=C(N)N)NC1=O | 57 nM | 
CC(C)[C@H]1NC(=O)[C@@H](Cc2cccc(Cl)c2)NCCOc2ccccc2CCCNC(=O)[C@H](CN(C)C)NC1=O | 27 nM | 95 nM
Cc1nnnn1C[C@@H]1NC(=O)[C@@H](C(C)C)NC(=O)[C@@H](Cc2cccc(C(F)(F)F)c2)NCCOc2ccccc2CCCNC1=O | 21 nM | 
CC(C)[C@H]1NC(=O)[C@@H](Cc2ccc(O)cc2)NCCOc2ccccc2CCCNC(=O)[C@H](CN)NC1=O | 171 nM | 
CC(C)[C@H]1NC(=O)[C@@H](Cc2ccc(Cl)cc2)NCCOc2ccccc2CCCNC(=O)[C@H](CN)NC1=O | 60 nM | 
CC(C)[C@H]1NC(=O)[C@@H](Cc2cccc(Cl)c2)NCCOc2ccccc2CCCNC(=O)[C@H](CN=C2NCCN2)NC1=O | 51 nM | 
CC(C)[C@H]1NC(=O)[C@@H](Cc2ccc(O)cc2)NCCOc2ccccc2CCCNC(=O)[C@H](CCN)NC1=O | 342 nM | 
CNC[C@@H]1NC(=O)[C@@H](C(C)C)NC(=O)[C@@H](Cc2ccc(Cl)cc2)NCCOc2ccccc2CCCNC1=O | 31 nM | 33 nM
CC(C)[C@H]1NC(=O)[C@@H](Cc2cccc(Cl)c2)NCCOc2ccccc2CCCNC(=O)[C@H](CNC2=NCCCN2)NC1=O | 87 nM | 
CC(C)[C@H]1NC(=O)[C@@H](Cc2cccc(Cl)c2)NCCOc2ccccc2CCCNC(=O)[C@H](CN/C(N)=N/C#N)NC1=O | 100 nM | 
CC(C)[C@H]1NC(=O)[C@@H](Cc2cccc(C(F)(F)F)c2)NCCOc2ccccc2CCCNC(=O)[C@H](CN2CCCC2)NC1=O | 4.6 nM | 2 nM
Cc1nnn(C[C@@H]2NC(=O)[C@@H](C(C)C)NC(=O)[C@@H](Cc3cccc(C(F)(F)F)c3)NCCOc3ccccc3CCCNC2=O)c1C | 23 nM | 
CC(C)[C@H]1NC(=O)[C@@H](Cc2cccc(F)c2)NCCOc2ccccc2CCCNC(=O)[C@H](Cc2cscn2)NC1=O | 116 nM | 
CC(C)[C@H]1NC(=O)[C@@H](Cc2cccc(Cl)c2)NCCOc2ccccc2CCCNC(=O)[C@H](Cn2cccn2)NC1=O | 18 nM | 56 nM
CC(C)[C@H]1NC(=O)[C@@H](Cc2cccc(Cl)c2)NCCOc2ccccc2CCCNC(=O)[C@H](CN)NC1=O | 64 nM | 
CC(C)[C@H]1NC(=O)[C@@H](Cc2cccc(C(F)(F)F)c2)NCCOc2ccccc2CCCNC(=O)[C@H](CNc2ncccn2)NC1=O | 20 nM | 
CC(C)[C@H]1NC(=O)[C@@H](Cc2ccc(Cl)cc2)NCCOc2ccccc2CCCNC(=O)[C@H](CNC(N)=O)NC1=O | 543 nM | 
CC(C)[C@H]1NC(=O)[C@@H](Cc2cccc(Cl)c2)NCCOc2ccccc2CCCNC(=O)[C@H](CCC(=N)N)NC1=O | 27 nM | 
CC(C)[C@H]1NC(=O)[C@@H](Cc2cccc(C(F)(F)F)c2)NCCOc2ccccc2CCCNC(=O)[C@H](CNC(=N)N)NC1=O | 6 nM | 28 nM
CC(C)[C@H]1NC(=O)[C@@H](Cc2ccc(Cl)cc2)NCCOc2ccccc2CCCNC(=O)[C@H](CN=C(N)N)NC1=O | 6 nM | 
